The conditions of data set [1]: From supplier data sheet; cited from earlier work.
A short description of data set [2]: Surface tension above critical micelle concentration in water (pendant drop method). Type of data set: physicochemical. The note with it: 5 wt % of the compound in demineralized water, picture 5 seconds after drop. Here is the method:
The surface tension of a liquid/air interface can be determined by the “pendant drop method” as described in “Encyclopedia of Surface and Colloid Science” by Marcel Dekker, 2002.
Samples were prepared as 5 wt % of the compound in demineralized water mixed in a 50 mL PE bottle. At 5 wt % it is ensured that concentrations are well above the critical micelle concentration. The samples were left over-night on a shaking table to ensure saturation and/or mixing. The measurements by “pendant drop method” were performed with DataPhysics OCA-15 pus, Dynamic Contact Angle, using software SCA202 V 4.5.8. The needle was a Disposable needle SNP-D 165/137, and the volume drop was 15 microliters.
The picture from which the surface tension is calculated is taken 5 seconds after the drop is forced out of the syringe.

Where two headings read alike, the source gives them in different places. Marks after values point to notes of the source that are not given here.

On to PEG-6 decyl alcohol, for which the Surface tension in data set [1] is 26.6* mN/m.

Turning to PEG-6 stearate, the Surface tension in data set [2] worked out at 43 mN/m.

Take PEG-7 lauryl alcohol: the Surface tension in data set [1] is on record as 29* mN/m.

For “PEG-8 branched C12-C14 secondary alcohol”, the Surface tension in data set [1] is listed as 27* mN/m.

With “PEG-11 branched C12-C14 secondary alcohol”, the Surface tension in data set [1] was 30* mN/m.

In the case of PEG-12 nonylphenol, branched, the Surface tension in data set [2] came to 32 mN/m.

Regarding PEG-12 stearate, the Surface tension in data set [2] was 35 mN/m.

PEG-20 oleyl ether showed a Surface tension in data set [2] of 36 mN/m.

Substance PEG-20 sorbitan monostearate displayed a Surface tension in data set [2] of 43 mN/m.

PEG-22 oleyl alcohol: the Surface tension in data set [1] is reported as 44* mN/m.

Values taken from patent US20170130064A1, “NOVEL POLYSILOXANE-BASED FOULING-RELEASE COATS COMPRISING POLY(OXYALKYLENE)-MODIFIED ALCOHOLS” (HEMPEL A/S, priority 2014, published 2017).
